Here are results for 20 molecules from patent publication US6511989B2, “Acylaminoalkyl-substituted benzenesulfonamide derivatives, their preparation, their use and pharmaceutical preparations comprising them” (Aventis Pharma Deutschland GmbH, priority 2000, dated 2003).

System in the first data set: not given
Assay: not given
Details: not given
On to `CNC(=S)NS(=O)(=O)c1cc(CCNC(=O)c2cnc3ccccc3c2)ccc1OCCc1ccccc1` [Example 12, 1-[5-(2-(3-Quinolinecarboxamido)ethyl)-2-(2-phenylethoxy)phenylsulfonyl]-3-methyl-thiourea], for which the melting point (usually the temperature of the solid-liquid transition) came to 124 °C.

Molecule `CNC(=S)NS(=O)(=O)c1cc(CCNC(=O)C2=CCCCC2)ccc1OCCOC` [Example 22, 1-[5-(2-(1-Cyclohex-1-enecarboxamido)ethyl)-2-(2-methoxyethoxy)phenylsulfonyl]-3-methyl-thiourea] had a melting point of 150 to 155 °C.

Regarding `CCCOc1ccc(CCNC(=O)c2cnc3ccccc3c2)cc1S(=O)(=O)NC(=O)NC` [Example 9], the melting point worked out at 120 °C.

Regarding `CNC(=S)NS(=O)(=O)c1cc(CCNC(=O)c2cnc3ccccc3c2)ccc1OCCOc1ccccc1` [Example 11, 1-[5-(2-(3-Quinolinecarboxamido)ethyl)-2-(2-phenoxyethoxy)phenylsulfonyl]-3-methyl-thiourea], the melting point is 110 °C.

Turning to `CNC(=O)NS(=O)(=O)c1cc(CCNC(=O)C=C(C)C)ccc1OC` [Example 16, 1-[5-(2-(3-Methylbut-2-eneamido)ethyl)-2-methoxyphenylsulfonyl]-3-methyl-urea], the melting point lay in the range of 199 to 203 °C.

In turn, `CNC(=S)NS(=O)(=O)c1cc(CCNC(=O)c2cnc3ccccc3c2)ccc1OC` [Example 1, 1-[5-(2-(3-Quinolinecarboxamido)ethyl)-2-methoxyphenylsulfonyl]-3-methyl-thiourea] had a melting point of 85 °C.

Consider `CNC(=S)NS(=O)(=O)c1cc(CCNC(=O)c2cnc3ccccc3c2)ccc1-c1ccco1` [Example 14, 1-[5-(2-(3-Quinolinecarboxamido)ethyl)-2-(2-furyl)phenylsulfonyl]-3-methyl-thiourea], for which the melting point was in the range of 155 to 156 °C.

`CCOCCOc1ccc(CCNC(=O)c2cnc3ccccc3c2)cc1S(=O)(=O)NC(=S)NC` [Example 10, 1-[5-(2-(3-Quinolinecarboxamido)ethyl)-2-(2-ethoxyethoxy)phenylsulfonyl]-3-methyl-thiourea] had a melting point of 50 to 52 °C.

`CNC(=S)NS(=O)(=O)c1cc(CCNC(=O)C2=CCCCC2)ccc1OC` [Example 18, 1-[5-(2-(1-Cyclohex-1-enecarboxamido)ethyl)-2-methoxyphenylsulfonyl]-3-methyl-thiourea] yielded a melting point of 179 to 182 °C.

With `CNC(=S)NS(=O)(=O)c1cc(CCNC(=O)C=C(C)C)ccc1OC` [Example 15, 1-[5-(2-(3-Methylbut-2-eneamido)ethyl)-2-methoxyphenylsulfonyl]-3-methyl-thiourea], the melting point fell in the range of 153 to 154 °C.

As to `CCOc1ccc(CCNC(=O)c2cnc3ccccc3c2)cc1S(=O)(=O)NC(=S)NC` [Example 7, 1-[5-(2-(3-Quinolinecarboxamido)ethyl)-2-ethoxyphenylsulfonyl]-3-methyl-thiourea], the melting point is 189 to 193 °C.

In the case of `CNC(=O)NS(=O)(=O)c1cc(CCNC(=O)c2cnc3ccccc3c2)ccc1OCCOCC(F)(F)F` [Example 6, 1-[5(2-(3Quinolinecarboxamido)ethyl)-2-(2(2,2,2-trifluoroethoxy)ethoxy)phenyl-sulfonyl]-3-methyl-urea], the melting point turned out to be 128 °C.

Take `CNC(=O)NS(=O)(=O)c1cc(CCNC(=O)C2=CCCCC2)ccc1OC` [Example 19, 1-[5-(2-(1-Cyclohex-1-enecarboxamido)ethyl)-2-methoxyphenylsulfonyl]-3-methyl-urea]: the melting point was 175 °C.

The molecule `CNC(=S)NS(=O)(=O)c1cc(CCNC(=O)c2cnc3ccccc3c2)ccc1OCC(F)(F)F` [Example 13, 1-[5-(2-(3-Quinolinecarboxamido)ethyl)-2-(2,2,2-trifluoroethoxy)phenylsulfonyl]-3-methyl-thiourea] showed a melting point of 75 °C.

For the next data set, the system named is chloroform-induced ventricular fibrillation in the mouse. Briefly: Chloroform-induced ventricular fibrillation in the mouse. The class given is in vivo. Particulars: 3 mg/kg i.p., 30 min before chloroform anesthesia; untreated control 100%. From the text:
Chloroform-induced Ventricular Fibrillation in the Mouse (Action in the Case of Vagal Dysfunction)
Hypoactivity of the vagal nervous system leads to hyperactivity of the sympathetic nervous system. Damages to health that result from an inequilibrium of the autonomic nervous system when the dysfunction affects the heart include the weakening of the myocardial contractile force and fatal cardiac arrhythmias such as ventricular fibrillation. The action of the test compounds was investigated in the model of chloroform-induced ventricular fibrillation in the mouse (see J. W. Lawson, Antiarrhythmic activity of some isoquinoline derivatives determined by a rapid screening procedure in the mouse; J. Pharmacol. Exp. Ther. 160 (1968) 22).
The test compound was dissolved in a mixture of dimethyl sulfoxide (DMSO) and 10 percent sodium hydrogencarbonate solution and administered intraperitoneally (i.p.). The dose was 3 mg/kg. 30 min later, the mouse was anesthetized with chloroform in a beaker. As soon as respiratory arrest had occurred under deep anesthesia (toxic stage of anesthesia), the thorax of the animal was opened using a pair of scissors and the heartbeat was visually inspected. It can be determined here at a glance whether the heart is beating, fibrillating, or has stopped. […]
Take `COc1ccc(CCNC(=O)C2=CCCCC2)cc1S(=O)(=O)NC(=S)NC1CCCCC1` [Example 21, 1-[5-(2-(1-Cyclohex-1-enecarboxamido)ethyl)-2-methoxyphenylsulfonyl]-3-cyclohexyl-thiourea]: the “Fibrillation ratio (in %)” value was 70%.

For a further data set, the target named is hSUR1/hKir6.2 (Homo sapiens, UniProt Q09428+Q14654). Briefly: Action on hSUR1/hKir6.2-transfected CHO cells (membrane potential, DIBAC4 fluorescence, FLIPR). The class given is cell-based. The following applies: 10 μM; CHO cells activated with diaxozide. The text has this: Action on hSUR1/hKir6.2-transfected CHO Cells (Hypoglycemic Action)
hSUR1/hKir6.2, sequence (Q09428 whole entry): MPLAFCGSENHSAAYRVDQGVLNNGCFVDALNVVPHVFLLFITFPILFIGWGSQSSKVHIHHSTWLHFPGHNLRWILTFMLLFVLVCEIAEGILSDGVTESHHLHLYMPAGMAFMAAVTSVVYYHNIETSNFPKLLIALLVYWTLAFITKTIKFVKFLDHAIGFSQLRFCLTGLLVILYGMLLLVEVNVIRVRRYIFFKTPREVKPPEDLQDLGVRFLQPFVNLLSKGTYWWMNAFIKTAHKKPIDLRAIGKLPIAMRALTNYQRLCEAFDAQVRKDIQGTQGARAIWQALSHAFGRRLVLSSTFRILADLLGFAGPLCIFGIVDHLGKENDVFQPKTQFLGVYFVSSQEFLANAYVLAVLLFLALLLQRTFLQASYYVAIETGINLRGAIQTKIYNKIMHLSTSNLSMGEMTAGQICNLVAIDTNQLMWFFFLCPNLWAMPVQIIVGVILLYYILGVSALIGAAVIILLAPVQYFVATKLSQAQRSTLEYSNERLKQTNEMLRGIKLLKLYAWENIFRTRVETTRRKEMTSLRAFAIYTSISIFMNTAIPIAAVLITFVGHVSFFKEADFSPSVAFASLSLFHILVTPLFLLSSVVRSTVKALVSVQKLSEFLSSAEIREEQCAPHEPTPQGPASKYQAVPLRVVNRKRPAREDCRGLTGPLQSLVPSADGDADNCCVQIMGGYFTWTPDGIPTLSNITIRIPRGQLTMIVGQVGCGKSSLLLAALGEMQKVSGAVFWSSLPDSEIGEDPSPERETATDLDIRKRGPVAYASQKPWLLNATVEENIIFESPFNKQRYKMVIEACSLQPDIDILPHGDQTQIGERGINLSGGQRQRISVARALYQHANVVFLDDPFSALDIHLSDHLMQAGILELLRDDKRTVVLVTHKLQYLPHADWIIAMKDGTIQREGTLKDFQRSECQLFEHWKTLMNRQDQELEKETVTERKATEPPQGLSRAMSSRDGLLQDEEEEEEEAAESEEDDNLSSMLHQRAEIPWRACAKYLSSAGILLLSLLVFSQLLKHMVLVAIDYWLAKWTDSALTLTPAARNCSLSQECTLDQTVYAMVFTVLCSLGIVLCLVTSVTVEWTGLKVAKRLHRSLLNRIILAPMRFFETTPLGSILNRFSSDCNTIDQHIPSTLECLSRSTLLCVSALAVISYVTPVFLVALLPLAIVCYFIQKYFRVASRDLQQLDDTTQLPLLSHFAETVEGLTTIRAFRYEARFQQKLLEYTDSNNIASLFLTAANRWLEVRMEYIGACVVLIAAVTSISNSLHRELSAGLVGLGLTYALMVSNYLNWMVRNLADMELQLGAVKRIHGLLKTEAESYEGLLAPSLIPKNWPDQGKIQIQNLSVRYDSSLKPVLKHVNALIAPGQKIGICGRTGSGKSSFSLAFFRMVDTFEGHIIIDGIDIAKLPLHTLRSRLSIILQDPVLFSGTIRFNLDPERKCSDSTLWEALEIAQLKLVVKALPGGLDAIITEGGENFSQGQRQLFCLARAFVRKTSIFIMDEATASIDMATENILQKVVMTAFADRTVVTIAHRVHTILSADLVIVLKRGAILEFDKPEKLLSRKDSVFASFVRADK
hSUR1/hKir6.2, sequence (Q14654 whole entry): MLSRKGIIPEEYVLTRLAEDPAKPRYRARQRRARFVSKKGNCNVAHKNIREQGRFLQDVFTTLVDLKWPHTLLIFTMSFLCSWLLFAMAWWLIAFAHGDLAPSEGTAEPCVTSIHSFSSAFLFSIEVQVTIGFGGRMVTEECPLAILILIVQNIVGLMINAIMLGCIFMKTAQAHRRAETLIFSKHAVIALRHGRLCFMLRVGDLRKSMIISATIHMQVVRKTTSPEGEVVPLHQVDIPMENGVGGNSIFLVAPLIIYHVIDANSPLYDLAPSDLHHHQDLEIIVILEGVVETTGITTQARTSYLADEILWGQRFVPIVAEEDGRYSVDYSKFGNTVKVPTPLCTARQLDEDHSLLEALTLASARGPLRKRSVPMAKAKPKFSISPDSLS
The target organ of these compounds is the […] of the pancreas where they block ATP-sensitive potassium channels and produce a release of the hypoglycemic hormone insulin by influencing the electrical potential of the cell membrane.
The extent of this depolarization of the cell membrane, which is caused by the compounds according to the invention, was investigated on CHO cells that were transfected with the cloned components of human pancreatic ATP-sensitive potassium channels, hSUR1, and hKir6.2, and activated by pretreatment with diaxozide, an opener of ATP-sensitive potassium channels. The potency of a compound with respect to the membrane potential of these transfected and activated CHO cells is a measure of the hypoglycemic potential of this compound.
On the day of measurement, the microtiter plates were washed three times with PBS (physiological buffer solution). In the last washing step, 90 μl remained in each well. The cells were then loaded with the fluorescent dye DIBAC4 (Molecular Probes, Portland, Oreg., USA) by addition of 90 μl of a 10-micromolar solution of DIBAC4 in PBS and of 90 μl of a 400 micromolar solution of diaxozide in PBS to each well. After an incubation time of 30 min at 37° C., the microtiter plates were then transferred to a fluorescent microtiter plate reader (FLIPR; Molecular Devices, Sunnyvale, Calif., USA). The cells were stimulated by means of an argon laser (Innova 90; Coherent, Santa Clara, Calif., USA) at a wavelength of 488 nm and the fluorescence emission was measured by means of a CCD camera. The measurement of the membrane potential began after 4 min by addition of 20 μl of a solution of the test compound or of the control solution to each well, the resulting fluorescence emission being measured every 20 seconds for a period of 20 min. The data shown are mean values of at least 4 experiments.
`CNC(=S)NS(=O)(=O)c1cc(CCNC(=O)c2cnc3ccccc3c2)ccc1OCCOc1ccccc1` [Example 11, 1-[5-(2-(3-Quinolinecarboxamido)ethyl)-2-(2-phenoxyethoxy)phenylsulfonyl]-3-methyl-thiourea]: the “Blockade hSUR1/hKir6.2” value was determined as 67.5%.

Regarding `CNC(=S)NS(=O)(=O)c1cc(CCNC(=O)c2cnc3ccccc3c2)ccc1OCCOCC(F)(F)F` [Example 4, 1-[5-(2-(3-Quinolinecarboxamido)ethyl)-2-(2-(2,2,2-trifluoroethoxy)ethoxy)phenyl-sulfonyl]-3-methyl-thiourea], the “Blockade hSUR1/hKir6.2” value worked out at 69.8%.

For the molecule `CNC(=S)NS(=O)(=O)c1cc(CCNC(=O)c2cnc3ccccc3c2)ccc1OCCOC` [Example 2, 1-[5-(2-(3-Quinolinecarboxamido)ethyl)-2-(2-methoxyethoxy)phonylsulfonyl]-3-methyl-thiourea], the “Blockade hSUR1/hKir6.2” value is 6.1%.

For `CNC(=O)NS(=O)(=O)c1cc(CCNC(=O)c2cnc3ccccc3c2)ccc1OCCOC` [Example 3, 1-[5-(2-(3-Quinolinecarboxamido)ethyl)-2-(2-methoxyethoxy)phenylsulfonyl]-3-methyl-urea], the “Blockade hSUR1/hKir6.2” value worked out at 0%.

The subject of a further data set is papillary muscle of the guinea pig. Nature of the data set: Action potential duration on the papillary muscle of the guinea pig (hypoxia-shortened APD90). The following applies: 2 μM; 60 min after addition; relative to shortening caused by hypoxia. From the text: Action Potential Duration on the Papillary Muscle of the Guinea Pig
ATP deficiency states observed during ischemia in the cardiac muscle cell, lead to a shortening of the action potential duration (ATP=adenosine triphosphate). They are regarded as one of the causes of so-called reentry arrhythmias, which can cause sudden cardiac death. The opening of ATP-sensitive potassium channels by the lowering of the ATP level is regarded as the cause of this. For the measurement of the action potential on the papillary muscle of the guinea pig a standard microelectrode technique was employed.
Guinea pigs of both sexes were killed by a blow to the head, the hearts were removed, and the papillary muscles were separated out and suspended in an organ bath. The organ bath was rinsed with Ringer's solution (136 mmol/l of NaCl, 3.3 mmol/l of KCl, 2.5 mmol/l of CaCl2, 1.2 mmol/l of KH2PO4, 1.1 mmol/l of MgSO4, 5.0 mmol/l of glucose, 10.0 mmol/l of 1-(2-hydroxyethyl)piperazine4-(2-ethanesulfonic acid) (HEPES), pH adjusted to 7.4 with NaOH) and aerated with 100% oxygen at a temperature of 37° C. The muscle was stimulated with square-wave pulses of 1 V and 1 ms duration and a frequency of 1 Hz by means of an electrode. The action potential was derived and recorded by means of a glass microelectrode inserted intracellularly, which was filled with 3 mol/l of KCl solution. The compound to be tested was added to the Ringer's solution in a concentration of 2 μmol/l. The action potential was amplified using an amplifier from Hugo Sachs (March-Hugstetten, Germany) and stored and analyzed by means of a computer. The duration of the action potential was determined at a degree of repolarization of 90% (APD90). After an equilibration time of 30 min, the action potential shortening was produced by rinsing the papillary muscle with a hypoxic NaCl solution. The glucose was removed here, the HEPES buffer replaced by PIPES buffer (piperazine-1,4-bis(2-ethanesulfonic acid)), the pH was adjusted to 6.5 and the aeration was carried out using 100% nitrogen. After a time of 60 min, this led to a marked shortening of the APD90. After this time, the test compound was added and the relengthening of the action potential recorded after a further 60 min. The compound-caused relengthening of the APD90 was calculated as a percentage, in relation to the shortening caused by hypoxia. The test compounds were added to the bath solution as stock solution in propanediol.
The following relengthenings of the APD90 values were observed.
In the case of `CCCOc1ccc(CCNC(=O)c2cnc3ccccc3c2)cc1S(=O)(=O)NC(=S)NC` [Example 8, 1-[5-(2-(3-Quinolinecarboxamido)ethyl)-2-propyloxyphenylsulfonyl]-3-methyl-thiourea], the “Relengthening of the APD90 shortened by hypoxia” value (shortened to “Relengthening”) amounted to 35%.

As to `CNC(=S)NS(=O)(=O)c1cc(CCNC(=O)c2cnc3ccccc3c2)ccc1OCCOCC(F)(F)F` [Example 4, 1-[5-(2-(3-Quinolinecarboxamido)ethyl)-2-(2-(2,2,2-trifluoroethoxy)ethoxy)phenyl-sulfonyl]-3-methyl-thiourea], the “Relengthening” value came out at 69%.

On to `CNC(=S)NS(=O)(=O)c1cc(CCNC(=O)c2cnc3ccccc3c2)ccc1OCCOC` [Example 2, 1-[5-(2-(3-Quinolinecarboxamido)ethyl)-2-(2-methoxyethoxy)phonylsulfonyl]-3-methyl-thiourea], for which the “Relengthening” value is on record as 42%.

`CNC(=S)NS(=O)(=O)c1cc(CCNC(=O)C=C(C)C)ccc1OCCOC` [Example 17, 1-[5-(2-(3-Methylbut-2-eneamido)ethyl)-2-(2-methoxyethoxy)phenylsulfonyl]-3-methyl-thiourea]: the “Relengthening” value is 34%.
